In US20100173833A1, “METHODS AND COMPOSITION FOR USE OF CYCLIC ANALOGUES OF HISTATIN” (priority 2007, published 2010):
Values after ≈ are worked out from the molar mass of the structure shown. Bridge positions count the residues as written; N and C are the ends. Peptide text beside a SMILES is read from it.

What was measured:
[1] = tested on: S. haemolyticus (ATCC 29970); conditions: lab strain ATCC 29970; 1 hour 37° C. in 10 mM NaCl/50 mM MOPS, pH 7.2, then YPD 24 hours 37° C.
[2] = tested on: Candida albicans (isolate #3); conditions: clinical isolate #3; 1 hour 37° C. in 10 mM NaCl/50 mM MOPS, pH 7.2, then YPD 24 hours 30° C.
[3] = tested on: Primary human neonatal foreskin epithelial cells; conditions: 50 μM working (antimicrobial) concentration
Procedure: At 18 and 36 hours following addition of compound, the foreskin epithelial cells were imaged using phase contract microscopy at 20× magnification. […] The experiments was repeated three times.

Bacillus subtilis = experiment: MIC, inhibition of cell growth; type: cell-based; conditions: lab strain; 1 hour 37° C. in 10 mM NaCl/50 mM MOPS, pH 7.2, then YPD 24 hours 37° C.
S. aureus (ATCC 29213) = conditions: lab strain ATCC 29213; 1 hour 37° C. in 10 mM NaCl/50 mM MOPS, pH 7.2, then YPD 24 hours 37° C.
adult rats = experiment: Tolerability in adult rats, intra-venous injection; type: in vivo
Procedure: (§1) In addition, mice were able to withstand a concentration of 15 mg/kg of DB2121 when injected via an intra-peritoneal route. When injected into adult rats, a concentration of up to and including 1.5 mg/kg caused no harm when injected intra-venously.

[4] = tested on: Candida albicans (isolate #4); conditions: clinical isolate #4; 1 hour 37° C. in 10 mM NaCl/50 mM MOPS, pH 7.2, then YPD 24 hours 30° C.
mice = experiment: Tolerability in mice, intra-peritoneal injection; type: in vivo
Procedure: as §1

[5] = tested on: Candida albicans (isolate #98); conditions: clinical isolate #98; 1 hour 37° C. in 10 mM NaCl/50 mM MOPS, pH 7.2, then YPD 24 hours 30° C.
[6] = tested on: Candida albicans (isolate #99); conditions: clinical isolate #99; 1 hour 37° C. in 10 mM NaCl/50 mM MOPS, pH 7.2, then YPD 24 hours 30° C.
MRSAS. aureus (STRAIN 2) = conditions: clinical MRSA strain 2; 1 hour 37° C. in 10 mM NaCl/50 mM MOPS, pH 7.2, then YPD 24 hours 37° C.
S. aurens (ATCC 43300) = conditions: lab strain ATCC 43300; 1 hour 37° C. in 10 mM NaCl/50 mM MOPS, pH 7.2, then YPD 24 hours 37° C.
MRSAS. aureus (STRAIN 1) = conditions: clinical MRSA strain 1; 1 hour 37° C. in 10 mM NaCl/50 mM MOPS, pH 7.2, then YPD 24 hours 37° C.
[7] = tested on: Candida albicans (isolate #77); conditions: clinical isolate #77; 1 hour 37° C. in 10 mM NaCl/50 mM MOPS, pH 7.2, then YPD 24 hours 30° C.
[8] = 1 uM, 37° C., in vitro
Procedure: The cyclic analogue was incubated in human saliva at a concentration of 1 uM and at a temperature of 37° C. in vitro. At various time points from 0 to 72 hours, 1.0 ul aliquots were taken and injected directly into a Micromass Quattro Micro mass spectrometer. Data was collected for a total of 3 minutes. The data was then processed using Mass Lynx 4.0 Analysis software.

[9] = tested on: Candida albicans (isolate #28); conditions: clinical isolate #28; 1 hour 37° C. in 10 mM NaCl/50 mM MOPS, pH 7.2, then YPD 24 hours 30° C.
S. aurens (ATCC 25923) = conditions: lab strain ATCC 25923; 1 hour 37° C. in 10 mM NaCl/50 mM MOPS, pH 7.2, then YPD 24 hours 37° C.
phosphorylated ERK 1, 2 = conditions: 50 μM, primary human foreskin epithelial cells
Procedure: Toxicological studies of DB2121 in human cells were also undertaken. Primary human neonatal foreskin epithelial cells were used to examine DB2121 toxicity, using a method as described in Min et al. 2004. […] At 18 and 36 hours following addition of compound, the foreskin epithelial cells were imaged using phase contract microscopy at 20× magnification. (E) Immediately following the image analysis, proteins were extracted, separated on SDS-PAGE gels, Western blotted, and probed for Phosphorylated and non-phosphorylated ERK 1, 2 to monitor the proliferation of the foreskin keratinocytes. The experiments was repeated three times.
The primary cells were lysed and monitored for a marker of proliferation namely phosphorylated ERK 1, 2.

[10] = tested on: Candida dubliniensis (isolate #10); conditions: clinical isolate #10; 1 hour 37° C. in 10 mM NaCl/50 mM MOPS, pH 7.2, then YPD 24 hours 30° C.
[11] = tested on: Candida albicans (isolate #11); conditions: clinical isolate #11; 1 hour 37° C. in 10 mM NaCl/50 mM MOPS, pH 7.2, then YPD 24 hours 30° C.
[12] = tested on: primary human foreskin epithelial cell culture; conditions: various concentrations, 0, 36 and 72 hours (FIG. 3)
Procedure: To determine range of non-toxic concentrations of DB2121, various concentration s of DB2121, 50 μM ketoconazole or DMSO as a control were separately added to primary human foreskin epithelial cell culture. At 0, 36 and 72 hours after addition, the epithelial cells were titriated off the culture plate and the viable cell number was determined. The experiment was performed in triplicate. At 72 hours, the foreskin epithelial cells exposed to the various compounds were imaged at 20× magnification using phase contrast microscopy. For cell counting, the epithelial cells were stained with trypan exclusion stain to monitor cell viability.

[13] = tested on: Candida albicans (isolate #5); conditions: clinical isolate #5; 1 hour 37° C. in 10 mM NaCl/50 mM MOPS, pH 7.2, then YPD 24 hours 30° C.
Candida albicans = conditions: concentration of cyclic Histatin analogue, alone or in combination; 1 hour 37° C. in 20 mM Tris-Cl, pH 7.2, 20 mM NaCl, then YPD 24 hours
[14] = tested on: Candida albicans (SC5314); conditions: lab strain; 1 hour 37° C. in 10 mM NaCl/50 mM MOPS, pH 7.2, then YPD broth 24 hours 30° C.
[15] = tested on: Candida tropicalis (isolate #93); conditions: clinical isolate #93; 1 hour 37° C. in 10 mM NaCl/50 mM MOPS, pH 7.2, then YPD 24 hours 30° C.
[16] = tested on: Candida albicans (isolate #AST97); conditions: clinical isolate AST97 (blood culture); 1 hour 37° C. in 10 mM NaCl/50 mM MOPS, pH 7.2, then YPD 24 hours 30° C.

## N=C(N)NCCC[C@H](NC(=O)[C@H](Cc1c[nH]cn1)NC(=O)[C@@H]1CSSC[C@H](NC(=O)[C@H](Cc2c[nH]cn2)NC(=O)[C@H](Cc2c[nH]cn2)NC(=O)[C@@H](N)CCCNC(=N)N)C(=O)N[C@@H](Cc2ccc(O)cc2)C(=O)N[C@@H](CCCCN)C(=O)N[C@@H](CCCNC(=N)N)C(=O)N[C@@H](CCCCN)C(=O)N[C@@H](Cc2ccccc2)C(=O)N[C@@H](Cc2c[nH]cn2)C(=O)N[C@@H](CCC(=O)O)C(=O)N[C@@H](CCCCN)C(=O)N[C@@H](Cc2c[nH]cn2)C(=O)N[C@@H](Cc2c[nH]cn2)C(=O)N1)C(=O)NCC(=O)N[C@@H](Cc1ccc(O)cc1)C(=O)O [DB2121] (H-RHHCYKRKFHEKHHCHRGY-OH; disulfide 4-15)
[1]
  MIC: 4.5 µM (≈ 11.5 µg/mL)
[2]
  MIC: 8.0 µM (≈ 20.5 µg/mL)
[3]
  toxicity to human primary cells: non-toxic
Bacillus subtilis
  MIC: 23.9 µM (≈ 61.1 µg/mL)
S. aureus (ATCC 29213)
  MIC: 12.5 µM (≈ 32 µg/mL)
Adult rats
  concentration that caused no harm: ≤ 1.5 mg/kg
[4]
  MIC: 4.5 µM (≈ 11.5 µg/mL)
mice
  concentration withstood: 15 mg/kg
[5]
  MIC: 4.5 µM (≈ 11.5 µg/mL)
[6]
  MIC: 4.5 µM (≈ 11.5 µg/mL)
MRSAS. aureus (STRAIN 2)
  MIC: 11.5 µM (≈ 29.4 µg/mL)
S. aurens (ATCC 43300)
  MIC: 5.5 µM (≈ 14.1 µg/mL)
MRSAS. aureus (STRAIN 1)
  MIC: 11.5 µM (≈ 29.4 µg/mL)
[7]
  MIC: 4.5 µM (≈ 11.5 µg/mL)
[8]
  stable in human saliva: at least 72 hours
[9]
  MIC: 4.5 µM (≈ 11.5 µg/mL)
S. aurens (ATCC 25923)
  MIC: 4.5 µM (≈ 11.5 µg/mL)
Phosphorylated ERK 1, 2
  ERK 1, 2 activation compared to control: not suppressed
[10]
  MIC: 4.5 µM (≈ 11.5 µg/mL)
[11]
  MIC: 6.5 µM (≈ 16.6 µg/mL)
[12]
  toxicity in primary cultured cells (viable cell number): minimal toxicity
[13]
  MIC: 4.5 µM (≈ 11.5 µg/mL)
Candida albicans
  MIC (DB2121): 11 µM
[14]
  MIC: 4.5 µM (≈ 11.5 µg/mL)
[15]
  MIC: 4.5 µM (≈ 11.5 µg/mL)
[16]
  MIC: 7.8 µM (≈ 20 µg/mL)
